According to PMC11767929 (Molecules, 2025):
Read-outs that look alike come from different tables or passages of the source.

Tests used:
Format in all cases: cell-based
[1] = test system: HCT 116 (human colorectal cancer cell line); experiment: MTT cytotoxicity assay, HCT 116 cells; settings: for IC50: read-out: IC50 HCT 116; for SI (HCT 116): selectivity index: ratio of IC50 NHDF-Neo to IC50 HCT 116
Procedure: (§1) Cytotoxicity screening of the obtained glycoconjugates, their potential metabolites, and substrates used for their synthesis was conducted using the MTT assay.
(§2) All cells were kept in a humidified incubator at 37 °C in a 5% CO2 atmosphere.
(§3) Cell viability was assessed by the MTT (3-[4,5–dimethylthiazol-2-yl]-2,5-diphenyltetrazolium bromide) test (ACROS Organics). Stock solutions of tested compounds were prepared in DMSO and stored accordingly.
(§4) Cells treated with glycoconjugates or potential metabolites were incubated for another 24–72 h (depending on the cell line). Subsequently, 50 µL MTT solution (0.5 mg/mL) in RPMI medium without Phenol Red was added to each well. After 3 h of incubation, the MTT solution was removed, and the precipitated formazan was dissolved in 100 µL of DMSO. Finally, the absorbance of the solubilized formazan crystals was measured at the 570 nm wavelength. Each experiment was carried out in three independent iterations with four technical repetitions. […] Cell viability was expressed as:Cell viability (%) = (ODsample − ODblank)/(ODcontrol − ODblank) × 100%.

[2] = test system: NHDF-Neo (normal human dermal fibroblast-neonatal cells); experiment: MTT cytotoxicity assay, NHDF-Neo healthy cells; settings: read-out: IC50 NHDF-Neo
Procedure: as §1, §2, §3, §4

[3] = test system: MCF-7 (human breast adenocarcinoma cell line); experiment: MTT cytotoxicity assay, MCF-7 cells; settings: for IC50: Homo sapiens, read-out: IC50 MCF-7; for SI (MCF-7): selectivity index: ratio of IC50 NHDF-Neo to IC50 MCF-7
Procedure: as §1, §2, §3, §4

[4] = test system: MCF-7 (human breast adenocarcinoma cell line); experiment: MTT assay in medium with 20 µM CuCl2, MCF-7 cells; settings: for IC50: Homo sapiens, MCF7, MTT assay, 72 h, read-out: IC50 MCF-7 + Cu2+; for IC50 / SI (MCF-7) + Cu2+: addition of CuCl2 at 20 µM; for SI (MCF-7) + Cu2+: ratio of IC50 NHDF-Neo to IC50 MCF-7; for increase of cytotoxicity in the presence of Cu(II) ions versus without copper: MCF-7 cells, 20 µM CuCl2
Procedure: (§5) Therefore, it seemed reasonable to conduct additional experiments for the glycoconjugates for which the likely mechanism of action is based on the chelation of metal ions. Since copper can be toxic to cells, it was necessary to test the toxicity of different concentrations of copper salt on the proliferation of all cell line types. Cell cultures under standard conditions were treated with copper solutions of various concentrations, and their effect on cell proliferation was verified by the MTT assay. Cells with the non-supplemented medium were used as a reference for 100% cell viability. […] The antiproliferative activities of 8-AQ glycoconjugates were further tested in the presence of the addition of Cu^2+ ions. HCT 116, MCF-7, and NHDF-Neo cells were treated with solutions of glycoconjugates 13–18 in a culture medium supplemented with 20 µM copper chloride, and their proliferation was measured using the MTT assay. The control consisted of cells cultured in a medium with the same concentration of copper salt added. […] This effect was more pronounced for the MCF-7 cell line (Figure 2). A significant decrease in MCF-7 cell proliferation was observed after treatment with glycoconjugates at concentrations of 100 µM and 50 µM in the presence of Cu^2+ compared to treatment with glycoconjugates alone (cell viability 2–23% and 6–79%, respectively, for each glycoconjugate concentration).
(§6) Cells were seeded in 96-well plates at a concentration of 1 × 10^4 (HCT 116, NHDF-Neo) or 5 × 10^3 (MCF-7) per well. Cell cultures were incubated for 24 h at 37 °C in a humidified atmosphere with 5% CO2. The culture medium was then removed and replaced with 100 µL of the tested compounds solution at varying concentrations (from 25 µM to 200 µM) in the medium with the addition of CuCl2. The final concentration of CuCl2 was 20 µM in each well. Following 24 or 72 h of incubation, the MTT assay was performed to assess cell viability.

[5] = test system: HCT 116 (human colorectal cancer cell line); experiment: MTT assay in medium with 20 µM CuCl2, HCT 116 cells; settings: addition of CuCl2 at 20 µM; for IC50: Homo sapiens, HCT-116, MTT assay, 24 h, read-out: IC50 HCT 116 + Cu2+; for SI (HCT 116) + Cu2+: ratio of IC50 NHDF-Neo to IC50 HCT 116
Procedure: as §5, §6

[6] = test system: NHDF-Neo (normal human dermal fibroblast-neonatal cells); experiment: MTT assay in medium with 20 µM CuCl2, NHDF-Neo cells; settings: addition of CuCl2 at 20 µM, 24 h, read-out: IC50 NHDF-Neo + Cu2+
Procedure: as §5, §6

[7] = Homo sapiens, HCT-116, 24 h, MTT assay, incubation time 24 h
[8] = MTT assay, incubation time 24 h
[9] = MCF7, MTT assay, incubation time 72 h

| SMILES | IC50 [1, 7] | IC50 [2, 8] | IC50 [3, 9] | SI (HCT 116) [1] | SI (MCF-7) [3] | other results |
| --- | --- | --- | --- | --- | --- | --- |
| C#CCO[C@@H]1O[C@H](COC(C)=O)[C@@H](OC(C)=O)[C@H](OC(C)=O)[C@H]1OC(C)=O [Compound 11, propargyl 2,3,4,6-tetra-O-acetyl-β-D-glucopyranoside] | > 800 µM | > 800 µM | > 800 µM |  |  |  |
| CC(=O)OC[C@H]1O[C@@H](OCCN=[N+]=[N-])[C@H](OC(C)=O)[C@@H](OC(C)=O)[C@H]1OC(C)=O [Compound 10, 2-azidoethyl 2,3,4,6-tetra-O-acetyl-β-D-galactopyranoside] | > 800 µM | > 800 µM | > 800 µM |  |  |  |
| CC(=O)OC[C@H]1O[C@@H](OCCN=[N+]=[N-])[C@H](OC(C)=O)[C@@H](OC(C)=O)[C@@H]1OC(C)=O [Compound 9, 2-azidoethyl 2,3,4,6-tetra-O-acetyl-β-D-glucopyranoside] | > 800 µM | > 800 µM | > 800 µM |  |  |  |
| CC(=O)OC[C@H]1O[C@@H](n2cc(COc3cccc4cccnc34)nn2)[C@H](OC(C)=O)[C@@H](OC(C)=O)[C@@H]1OC(C)=O [Compound 13a, reference compound] | 69 ± 2.5 µM | 57.4 ± 3.2 µM | 57.7 ± 3.3 µM | 0.8 | 1.0 |  |
| Nc1cccc2cccnc12 [Compound 1, 8-Aminoquinoline, reference compound] |  |  |  |  |  | IC50 ([1]; Homo sapiens, HCT-116, 24 h): > 800 µM; IC50 ([2]; 24 h): > 800 µM; IC50 ([3]; MCF7, 72 h): > 400 µM |
| [N-]=[N+]=NCCCNc1cccc2cccnc12 [Compound 5, N-(3-azidopropyl)quinolin-8-amine] | 115 ± 13.4 µM | 415 ± 10.6 µM | 47.1 ± 8.49 µM |  |  |  |
| C#CCO[C@@H]1O[C@H](COC(C)=O)[C@H](OC(C)=O)[C@H](OC(C)=O)[C@H]1OC(C)=O [Compound 12, propargyl 2,3,4,6-tetra-O-acetyl-β-D-galactopyranoside] | > 800 µM | > 800 µM | > 800 µM |  |  |  |
| C#CCNc1cccc2cccnc12 [Compound 3, N-(prop-2-yn-1-yl)quinolin-8-amine] | 550 ± 16.4 µM | > 800 µM | 295 ± 8.49 µM |  |  |  |
| CC(=O)OC[C@H]1O[C@@H](OCc2cn(CCCNc3cccc4cccnc34)nn2)[C@H](OC(C)=O)[C@@H](OC(C)=O)[C@H]1OC(C)=O [Compound 18] | 182 ± 15.6 µM | 585 ± 7.1 µM | 96.8 ± 6 µM | 3.2 | 6.0 | IC50 [4]: 35.4 ± 0.1 µM; SI (MCF-7) + Cu2+ [4]: >5.6; IC50 [5]: 43.4 ± 2.4 µM; SI (HCT 116) + Cu2+ [5]: >4.6; CC50 [6]: > 200 µM |
| Oc1cccc2cccnc12 [Compound 2, 8-hydroxyquinoline, reference compound] |  |  |  | 1 | 3.1 | IC50 ([1]; Homo sapiens, HCT-116, 24 h): 9.33 ± 0.22 µM; IC50 ([2]; 24 h): 9.34 ± 0.25 µM; IC50 ([3]; MCF7, 72 h): 3.01 ± 0.05 µM |
| OCc1cn(CCCNc2cccc3cccnc23)nn1 [Compound 20, 4-Hydroxymethyl-1-(8-quinolinylaminopropyl)-1H-1,2,3-triazol] | 329 ± 5.4 µM | > 800 µM | 150 ± 1.8 µM | >2.4 | >5.3 |  |
| CC(=O)OC[C@H]1O[C@@H](n2cc(COc3cccc4cccnc34)nn2)[C@H](OC(C)=O)[C@@H](OC(C)=O)[C@H]1OC(C)=O [Compound 14a, reference compound] | 22.7 ± 1.6 µM | 31.9 ± 1.6 µM | 4.1 ± 0.03 µM | 1.4 | 7.8 |  |
| OCCn1cc(CNc2cccc3cccnc23)nn1 [Compound 19] |  | > 800 µM | 116 ± 2.7 µM | >1.2 | >6.9 |  |
| CC(=O)OC[C@H]1O[C@@H](OCCn2cc(CNc3cccc4cccnc34)nn2)[C@H](OC(C)=O)[C@@H](OC(C)=O)[C@H]1OC(C)=O [Compound 16] | 227 ± 6.3 µM | > 800 µM | 227 ± 6.3 µM | >2.7 |  | IC50 [4]: 31.8 ± 4.9 µM; increase of cytotoxicity in the presence of Cu(II) ions versus without copper [4]: approximately six-fold; SI (MCF-7) + Cu2+ [4]: >6.3; IC50 [5]: 70.8 ± 3.9 µM; SI (HCT 116) + Cu2+ [5]: >2.8; IC50 [1, 8]: 290 ± 9.7 µM; CC50 [6]: > 200 µM |
| CC(=O)OC[C@H]1O[C@@H](n2cc(CNc3cccc4cccnc34)nn2)[C@H](OC(C)=O)[C@@H](OC(C)=O)[C@H]1OC(C)=O [Compound 14] | 282 ± 20.7 µM | > 800 µM | 204.2 ± 1.4 µM | >2.8 | >3.9 | IC50 [4]: 34.7 ± 5 µM; increase of cytotoxicity in the presence of Cu(II) ions versus without copper [4]: approximately six-fold; SI (MCF-7) + Cu2+ [4]: >5.8; IC50 [5]: 87.1 ± 15.9 µM; CC50 [6]: > 200 µM |
| OCc1cn(CCCOc2cccc3cccnc23)nn1 [Compound 20a, reference compound] | > 800 µM | > 800 µM | 602.9 ± 1.9 µM |  | >1.3 |  |
| CC(=O)OC[C@H]1O[C@@H](OCc2cn(CCCNc3cccc4cccnc34)nn2)[C@H](OC(C)=O)[C@@H](OC(C)=O)[C@@H]1OC(C)=O [Compound 17] | 116 ± 5.9 µM | 416 ± 12.4 µM | 78.1 ± 9.3 µM | 3.6 | 5.3 | IC50 [4]: 34.8 ± 0.7 µM; SI (MCF-7) + Cu2+ [4]: >5.7; IC50 [5]: 71.9 ± 1.7 µM; SI (HCT 116) + Cu2+ [5]: >2.8; CC50 [6]: > 200 µM |
| OCCn1cc(COc2cccc3cccnc23)nn1 [Compound 19a, reference compound] | > 800 µM | > 800 µM | > 800 µM |  |  |  |
| CC(=O)OC[C@H]1O[C@@H](N=[N+]=[N-])[C@H](OC(C)=O)[C@@H](OC(C)=O)[C@H]1OC(C)=O [Compound 8, 2,3,4,6-tetra-O-acetyl-β-D-galactopyranosyl azide] | > 800 µM | > 800 µM | > 800 µM |  |  |  |
| CC(=O)OC[C@H]1O[C@@H](OCCn2cc(CNc3cccc4cccnc34)nn2)[C@H](OC(C)=O)[C@@H](OC(C)=O)[C@@H]1OC(C)=O [Compound 15] | 284.2 ± 2.3 µM | > 800 µM | 103 ± 5.7 µM | >2.8 | >7.8 | IC50 [4]: 34.1 ± 5 µM; SI (MCF-7) + Cu2+ [4]: >5.9; IC50 [5]: 80.5 ± 2.2 µM; SI (HCT 116) + Cu2+ [5]: >2.5; CC50 [6]: > 200 µM |
| CC(=O)OC[C@H]1O[C@@H](N=[N+]=[N-])[C@H](OC(C)=O)[C@@H](OC(C)=O)[C@@H]1OC(C)=O [Compound 7, 2,3,4,6-tetra-O-acetyl-β-D-glucopyranosyl azide] | > 800 µM | > 800 µM | > 800 µM |  |  |  |
| [N-]=[N+]=NCCCOc1cccc2cccnc12 [Compound 6, 8-(3-azidopropoxy)quinoline] |  |  |  |  |  | IC50 ([2]; 24 h): 782 ± 8.7 µM |
| CC(=O)OC[C@H]1O[C@@H](n2cc(CNc3cccc4cccnc34)nn2)[C@H](OC(C)=O)[C@@H](OC(C)=O)[C@@H]1OC(C)=O [Compound 13] | > 800 µM | > 800 µM | > 800 µM |  |  | IC50 [4]: 71.3 ± 4.5 µM; increase of cytotoxicity in the presence of Cu(II) ions versus without copper [4]: more than ten times; SI (MCF-7) + Cu2+ [4]: >2.8; IC50 [5]: 118 ± 5 µM; SI (HCT 116) + Cu2+ [5]: >1.7; CC50 [6]: > 200 µM |
